{"source": "patent US20040106671A1", "about": "“Remedies for vesical hyperesthesia” (priority 2001, published 2004)", "key": {"dd male mice": {"test_system": "dd male mice", "assay": "Acute toxicity test", "format": "in vivo", "details": "oral administration, mortality on the seventh day after the administration", "protocol": "The test compound was administered orally or intraperitoneally to 3 animals per group of dd male mice (body weight: 20±1 g). The minimum lethal dose (MLD) value was obtained by observing mortality on the seventh day after the administration."}, "[1]": {"test_system": "Hypersensitivity of Bladder with Cystitis", "assay": "Inhibitory activity on hypersensitivity of bladder with cystitis (cystometry, xylene-induced cystitis)", "format": "in vivo, Male SD rats", "details": "oral, rats with xylene-induced cystitis; for pre-micturition contractions (amplitude, relative value, value before administration defined as 100): 0.05 mg/mL suspension at 2 mL/kg, average ± standard error, n = 13", "protocol": "The experiment was carried out by referring to the method of Morikawa, et al. [Jpn. J. Pharmacol., Vol. 52, pp. 587-595 (1990)]. Male SD rats weighing from 250 to 400 g (supplied by Japan SLC) were used in the test. Five to seven animals of these rats were put in each metal cage and reared by allowing them to freely take commercially available chow and water, in an animal room at room temperature between 19 and 25° C. and humidity between […] and 70% under illumination for 12 hours (from 7:00 a.m. to 7:00 p.m.) per day. The rats were subjected to bladder catheterization. Under anesthesia with pentobarbital sodium, the bladder was exposed by midline incision of the abdomen. […] The bladder catheter was fixed with a surgical silk ligature and indwelled. The other end of the catheter was exposed subcutaneously from the back of the neck, plugged and then fixed to the skin with a surgical thread. Two to three days after the bladder catheterization, a cystometry test was performed. The rats were put in a Bollman cage (Natsume Seisakusho Co., Ltd.) and a three-way cock was connected to the bladder catheter, one end of the cock was connected to a pressure transducer (Nihon Kohden Corp.) and the other end was connected to a 50-mL syringe (Terumo Corp.) arranged to an infusion pump (Harvard Apparatus, Inc.) for physiological saline infusion. The intravesical pressure signal from the pressure transducer was amplified with a strain pressure amplifier (AP-601G, Nihon Kohden Corp.) connected thereto, and was recorded on a thermal array recorder (RTA-1200, Nihon Kohden Corp.) via a polygraph system (RMP-6008, Nihon Kohden Corp.) containing the above amplifier. After the completion of the preparation for the measurement, a room temperature physiological saline was continuously infused into the bladder at a flow rate of 3 mL/h, and the intravesical pressure was measured to observe micturition intervals. After the micturition intervals became constant, the intravesical pressure waveform was recorded for one hour. Then, saline infusion was stopped, and 0.5 mL of xylene (Wako Pure Chemical Industries, Ltd.) was infused into the bladder through the catheter and was removed about 10 seconds later to cause cystitis. After 30 minutes, the continuous infusion of saline was started again and the intravesical pressure was monitored for about one hour to obtain the value before dosing. The test compound was suspended in a 0.5 w/v % aqueous solution of methylcellulose at a concentration of 0.05 mg/mL. The suspension or a vehicle was orally administered to the animals at a volume of 2 mL/kg. After the administration of the test compound, the intravesical pressure waveform was recorded for 4.5 hours. […] Pre-micturition contraction was measured as an index of bladder hypersensitivity. The values of pre-micturition contractions were read from the intravesical pressure waveform recorded on a chart paper using a digitizer (KD3220, Graphtec Corporation) controlled by a computer (PC-9801NS/R, NEC), and saved as a WJ2 file on Lotus 1-2-3 R2.5J (Lotus). […] The amplitude of pre-micturition contractions was expressed as a relative value when the value before the drug administration that was defined as 100, and the average ±standard error was calculated for each group."}}, "data": [{"compound": "C[C@](O)(C(=O)Nc1cccc2c1C(=O)c1sccc1CS2(=O)=O)C(F)(F)F", "note": "[Compound 1, (S)-(+)-N-(5,5-dioxido-10-oxo-4,10-dihydrothieno[3,2-c][1]benzothiepin-9-yl)-3,3,3-trifluoro-2-hydroxy-2-methylpropanamide]", "values": [{"measurement": "minimum lethal dose (MLD)", "setting": "dd male mice", "result": "> 1000", "unit": "mg/kg"}, {"measurement": "pre-micturition contractions (amplitude, relative value, value before administration defined as 100)", "setting": "[1]; After 1 hour", "result": "71.5 ± 6.5", "unit": "%"}, {"measurement": "pre-micturition contractions (amplitude, relative value, value before administration defined as 100)", "setting": "[1]; After 2 hours", "result": "64.7 ± 6.8", "unit": "%"}, {"measurement": "pre-micturition contractions (amplitude, relative value, value before administration defined as 100)", "setting": "[1]; After 3 hours", "result": "61.7 ± 6.8", "unit": "%"}, {"measurement": "pre-micturition contractions (amplitude, relative value, value before administration defined as 100)", "setting": "[1]; After 4 hours", "result": "61.6 ± 5.4", "unit": "%"}, {"measurement": "effect on pre-micturition contractions (in words)", "setting": "[1]; Test Example 1", "result": "inhibited pre-micturition contractions"}]}]}
